Laboratory results from US8158828B2, “Nuclear receptor binding agents” (priority 2005, dated 2012).

Tests used:
ER-α = biological target: T1, ER-α (Rattus norvegicus, UniProt P06211); assay: ER-α transactivation, ERE-LUC in COS or 293 cells; format: cell-based; parameters: % estardiol activity, ER-α: dose or concentration left out as unconfirmed
T1 sequence (P06211 1-600): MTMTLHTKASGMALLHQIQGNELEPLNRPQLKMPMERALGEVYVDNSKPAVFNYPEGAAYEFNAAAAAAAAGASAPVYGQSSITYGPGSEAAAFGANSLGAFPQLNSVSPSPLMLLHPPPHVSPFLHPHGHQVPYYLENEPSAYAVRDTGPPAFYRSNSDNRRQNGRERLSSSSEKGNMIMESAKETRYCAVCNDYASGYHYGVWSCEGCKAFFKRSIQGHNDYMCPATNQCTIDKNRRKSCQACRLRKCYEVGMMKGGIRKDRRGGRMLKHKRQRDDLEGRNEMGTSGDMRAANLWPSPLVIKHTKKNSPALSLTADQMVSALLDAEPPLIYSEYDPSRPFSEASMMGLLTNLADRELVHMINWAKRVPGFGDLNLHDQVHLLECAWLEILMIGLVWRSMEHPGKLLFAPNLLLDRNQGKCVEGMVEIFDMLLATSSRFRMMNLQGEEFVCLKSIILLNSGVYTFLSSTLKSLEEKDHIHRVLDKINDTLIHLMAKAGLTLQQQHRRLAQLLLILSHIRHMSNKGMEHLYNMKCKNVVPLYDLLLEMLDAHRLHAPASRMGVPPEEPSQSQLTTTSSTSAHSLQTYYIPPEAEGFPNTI
Description: FIG. 1: Effects of the indicated compounds on ER-α transactivation. COS or 293 cells plated in DME without phenol red+10% charcoal stripped fetal bovine serum (csFBS) at 90,000 cells per well of 24 well plates were transfected with 0.25 μg ERE-LUC, 0.02 μg CMV-LUC (Renilla) and 25 ng of ER-α by lipofectamine. Twenty four hours after transfection, the cells were treated as indicated in the figure, harvested 48 hrs after transfection and were assayed for firefly and renilla luciferase.
(§1) FIG. 5: Effect of the indicated compounds on ER-α transactivation. COS or 293 cells plated in DME without phenol red+10% csFBS at 90,000 cells per well of a 24 well plate were transfected with 0.25 μg ERE-LUC, 0.02 μg CMV-LUC (Renilla) and 5 ng of ER-α by lipofectamine. Twenty four hours after transfection, the cells were treated as indicated in the figure, harvested 48 hrs after transfection and were assayed for firefly and renilla luciferase.
as §1, with “FIG. 9:” for “FIG. 5:”, “csFBS” for “csFBS at 90,000 cells”, “and 25” for “and 5”
Also 25 ng of ER-α (FIGS. 1, 5, and 9), 50 ng of ER-β (FIGS. 2, 6 and 10) or 12.5 ng of AR (FIG. 3) were introduced by lipofectamine. All the receptors were cloned from rat tissue into the PCR3.1 vector backbone. […] Cells were harvested 48 hrs after transfection, and assayed for firefly and Renilla luciferase activity.
Also 25 ng of ER-α), 50 ng of ER-β or 12.5 ng of AR were introduced by lipofectamine. All the receptors were cloned from rat tissue into the PCR3.1 vector backbone. […] Cells were harvested 48 hrs after transfection, and assayed for firefly and Renilla luciferase activity.

ER-β = biological target: T2, ER-β (Rattus norvegicus, UniProt Q62986); assay: ER-β transactivation, ERE-LUC in COS or 293 cells; format: cell-based; details: COS or 293 cells
T2 construct: expressed in transfected cells; host or cells: COS or 293 cells
T2 sequence (Q62986 whole entry): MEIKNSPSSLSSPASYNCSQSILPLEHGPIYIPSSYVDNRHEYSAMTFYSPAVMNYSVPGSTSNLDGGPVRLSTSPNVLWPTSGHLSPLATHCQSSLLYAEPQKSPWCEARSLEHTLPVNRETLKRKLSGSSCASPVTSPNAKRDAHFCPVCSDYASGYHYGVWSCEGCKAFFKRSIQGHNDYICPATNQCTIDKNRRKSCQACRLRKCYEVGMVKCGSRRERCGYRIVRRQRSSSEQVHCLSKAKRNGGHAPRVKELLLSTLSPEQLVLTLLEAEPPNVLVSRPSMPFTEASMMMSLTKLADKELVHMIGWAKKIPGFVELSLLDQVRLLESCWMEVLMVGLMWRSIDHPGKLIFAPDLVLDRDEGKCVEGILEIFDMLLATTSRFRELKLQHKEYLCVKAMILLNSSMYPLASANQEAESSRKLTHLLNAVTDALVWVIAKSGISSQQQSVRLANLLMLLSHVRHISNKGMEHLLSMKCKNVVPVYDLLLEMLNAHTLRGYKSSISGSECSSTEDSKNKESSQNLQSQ
Description: as §1, with “FIG. 2:” for “FIG. 5:”, “on ER-β” for “on ER-α”, “and 50” for “and 5”, “of ER-β” for “of ER-α”
as §1, with “FIG. 6:” for “FIG. 5:”, “on ER-β” for “on ER-α”, “and 50” for “and 5”, “of ER-β” for “of ER-α”, “and” for “and were”
as §1, with “FIG. 10:” for “FIG. 5:”, “on ER-β” for “on ER-α”, “in DME+10%” for “in DME without phenol red+10%”, “and 50” for “and 5”, “of ER-β” for “of ER-α”
(§2) All the receptors were cloned from rat tissue into the PCR3.1 vector backbone. […] Cells were harvested 48 hrs after transfection, and assayed for firefly and Renilla luciferase activity.
as §2

[1] = test system: pS2 (gene encoding the trefoil peptides) in MCF-7 cells; assay: pS2 gene expression in MCF-7 cells (realtime RT-PCR); format: cell-based; details: 16 hrs
Description: MCF-7 cells were plated at 500,000 cells per well of a 6 well plate. RNA was isolated and the message levels of pS2 (gene encoding the trefoil peptides) measured and normalized to 18S ribosomal RNA by realtime polymerase chain reaction (rtPCR).
FIG. 11: Agonistic activity of the indicated compounds in MCF-7 cells. MCF-7 cells were plated at 500,000 cells per well of a 6 well plate. RNA was isolated and the message levels of pS2 gene measured and normalized to 18S ribosomal RNA by realtime rtPCR.
MCF-7 cells were plated at 500,000 cells per well of a 6 well plate. The cells were serum starved for 3 days and then were treated as above for 16 hrs. RNA was isolated and gene expression levels assessed by realtime RT-PCR, following normalization to 18S ribosomal RNA.

[2] = test system: TRAP positive multinucleated osteoclasts; assay: TRAP positive multinucleated osteoclasts from bone marrow cells; format: cell-based, rat; details: RANKL and GMCSF, 12 days
Description: FIG. 7: Effect of the indicated compounds on TRAP positive multinucleated osteoclasts. Bone marrow cells from rat femur was cultured in Alpha MEM+10% csFBS without phenol red in the presence or absence of 30 ng/ml RANKL and 10 ng/ml GMCSF. The cells were treated for 12 days and were stained for tartarate resistant acid phosphatase activity (TRAP) and multinucleated osteoclasts were counted.
Bone marrow cells isolated from rat femur were cultured in Alpha MEM without phenol red+10% sterile FBS without phenol red in the presence or absence of […] RANKL and 10 ng/ml GMCSF. The cells were treated for 12 days were stained for tartarate resistant acid phosphatase activity (TRAP) positive multinucleated osteoclasts and were counted.

osteoblasts = assay: Osteoblast activity; format: cell-based
uterus = assay: In vivo estrogenic activity, uterine weight; parameters: species or system rat; details: female rats, compound alone
Description: Rats that were administered the vehicle alone served as controls.

[3] = rats; cited from earlier work
CCRF/CEM = details: estrogen receptor-negative cell line; cited from earlier work
PC-3 cells = assay: Androgen independent prostate cancer cell growth; format: cell-based
Description: PC-3 cells were plated in RPMI+10% csFBS at 6000 cells per well of a 96 well plate. Medium was changed to RPMI+1% csFBS without phenol red and then treated for 72 hrs with increasing concentrations of SERMs.
The prostate cancer cell line PC-3 was plated in RPMI+10% csFBS at 6000 cells per well of a 96 well plate. Medium was changed to RPMI+1% csFBS without phenol red and cells were treated for 72 hrs with increasing concentrations of SERMs.
PC-3 growth inhibition was determined qualitatively, in vitro, and represented as a grading system based on the ability of the SERMs to inhibit growth. The number −4 is for compounds that induced 100% growth inhibition at 1 uM, −3 for compounds that inhibit growth by about 75-90%, −2 for about 50-70% and −1 for inhibition less than 50% growth.

[4] = format: in vivo, human; details: 80 mg/day
[5] = baseline to month 12, compared to placebo

O=C(c1ccc(O)cc1)N(c1ccccc1)c1ccccc1 [Compound 3e, 4-hydroxy-N,N-diphenyl-benzamide]
% estardiol activity, ER-α (ER-α): 133%
ER-α activity (luciferase expression), compound alone (ER-α; COS or 293 cells): most potent in stimulating ER-α
ER-β LUC expression, compound alone (ER-β): most potent in stimulating ER-β
pS2 expression [1]: increased pS2 expression levels
osteoclast differentiation / osteoclast activity [2]: highly suppressive of osteoclast activity
osteoblast activity (osteoblasts): stimulated osteoblast activity
estrogenic activity in terms of uterine weight (uterus): exhibited no estrogenic, or anti-estrogenic activity in uterus

C[C@]12CC[C@@H]3c4ccc(O)cc4CC[C@H]3[C@@H]1CC[C@@H]2O [estrogen, Estradiol, reference compound]
pS2 expression [1]: increased pS2
osteoclast differentiation / osteoclast activity [2]: strongly suppressed osteoclast differentiation
incidence of lipo-polysaccharide induced inflammatory responses [3]: reduce the incidence of lipo-polysacharride induced inflammatory responses

CC/C(=C(\c1ccccc1)c1ccc(OCCN(C)C)cc1)c1ccccc1 [tamoxifen]
viability of CCRF/CEM cells (CCRF/CEM): cause a decrease in viability
incidence of lipo-polysaccharide induced inflammatory responses [3]: reduce the incidence of lipo-polysacharride induced inflammatory responses

CCN(CC)CCOc1ccc(C(=C(Cl)c2ccccc2)c2ccccc2)cc1 [clomiphene]
viability of CCRF/CEM cells (CCRF/CEM): cause a decrease in viability

CN(C)CCOc1ccc(/C(=C(/CCCl)c2ccccc2)c2ccccc2)cc1 [toremifene]
osteoclast differentiation / osteoclast activity [2]: minimally but dose-dependently suppressed the osteoclast differentiation
inhibition at 10 µM (PC-3 cells; Homo sapiens, PC-3, 10 μM, 72 hrs): 100%
PC-3 growth inhibition, qualitative grading (PC-3 cells; in vitro, data not shown): −2 (−2 for about 50-70%)
serum lipid parameters overall [4]: statistically significant improvement in all serum lipid parameters measured
change in HDL levels [4, 5]: +5.4%
change in LDL [4, 5]: −9.0%
change in total circulating cholesterol [4, 5]: −7.1%
change in triglyceride levels [4, 5]: −20.1%

O=C(c1ccccc1)N(c1ccc(O)cc1)c1ccc(O)cc1 [Compound 3d, N,N-bis-(4-hydroxyphenyl)-benzamide]
% estardiol activity, ER-α (ER-α): 48%
osteoclast differentiation / osteoclast activity [2]: suppressed osteoclasts
osteoblast activity (osteoblasts): stimulated osteoblasts
estrogenic activity in terms of uterine weight (uterus): exhibited estrogenic activity, in terms of increased uterine weight

COc1ccc2c(c1)CCC(c1ccccc1)=C2c1ccc(OCCN2CCCC2)cc1 [nafoxidine]
viability of CCRF/CEM cells (CCRF/CEM): cause a decrease in viability
